Tests used:
[1] = biological target: EGFR L858R/T790M (Homo sapiens (Human), UniProt P00533, L858R/T790M); test: HTRF-based EGFR biochemical assay, L858R/T790M; conditions: L858R/T790M 0.02 nM enzyme, 100 μM ATP; read-out: LRTM enzyme IC50
Experimental: (§1) EGFR biochemical activity measurements were carried out using the homogeneous time-resolved fluorescence (HTRF) assay (Cisbio). Inhibitors and DMSO normalizations were first dispensed to empty black low-volume 384-well plates (Corning) with D300 digital liquid dispenser (HP). All reactions were carried out at room temperature and solutions were added to plates with a Multidrop Combi Reagent Dispenser (ThermoFisher). The reaction mixture (10 µL final volume) contained 1 μM tyrosine kinase peptide-biotin substrate and mutant EGFR in a reaction buffer (50 mM HEPES pH 7.0, 5 mM MgCl2, 1 mM MnCl2, 0.01% BSA, 2 mM TCEP, 0.1 mM NaVO4). Enzyme concentrations were adjusted to accommodate varying kinase activities (L858R 0.1 nM, L858R/T790M 0.02 nM). Enzyme reaction solution (2× concentrations, 5 μL) was added to 384-well plates containing compounds and incubated for 30 mins. Enzyme reactions were initiated with the addition of 5 μL of ATP to a final concentration of 100 μM and reacted for 20 mins. Reactions were quenched with the addition of 10 μL of phospho-tyrosine antibody-Europium (III) cryptate (1-to-180 volume ratio) and Streptavidin-XL665 (46.7 nM) in EDTA-containing detection buffer, then incubated at room temperature for 1 hour, and read with a PHERAstar plate reader (excitation=337 nm, emission=620 nm and 665 nm). IC50 values were determined by inhibition curves (11-point curves from 1.0 μM to 0.130 nM or 23-point curves from 1.0 μM to 0.130 μM) in triplicate with non-linear least squares fit in GraphPad Prism 7.0d.

[2] = biological target: EGFR L858R (Homo sapiens (Human), UniProt P00533, L858R); test: HTRF-based EGFR biochemical assay, L858R; conditions: L858R 0.1 nM enzyme, 100 μM ATP; read-out: LR enzyme IC50
Sequence of EGFR L858R (P00533 25-1210 L858R): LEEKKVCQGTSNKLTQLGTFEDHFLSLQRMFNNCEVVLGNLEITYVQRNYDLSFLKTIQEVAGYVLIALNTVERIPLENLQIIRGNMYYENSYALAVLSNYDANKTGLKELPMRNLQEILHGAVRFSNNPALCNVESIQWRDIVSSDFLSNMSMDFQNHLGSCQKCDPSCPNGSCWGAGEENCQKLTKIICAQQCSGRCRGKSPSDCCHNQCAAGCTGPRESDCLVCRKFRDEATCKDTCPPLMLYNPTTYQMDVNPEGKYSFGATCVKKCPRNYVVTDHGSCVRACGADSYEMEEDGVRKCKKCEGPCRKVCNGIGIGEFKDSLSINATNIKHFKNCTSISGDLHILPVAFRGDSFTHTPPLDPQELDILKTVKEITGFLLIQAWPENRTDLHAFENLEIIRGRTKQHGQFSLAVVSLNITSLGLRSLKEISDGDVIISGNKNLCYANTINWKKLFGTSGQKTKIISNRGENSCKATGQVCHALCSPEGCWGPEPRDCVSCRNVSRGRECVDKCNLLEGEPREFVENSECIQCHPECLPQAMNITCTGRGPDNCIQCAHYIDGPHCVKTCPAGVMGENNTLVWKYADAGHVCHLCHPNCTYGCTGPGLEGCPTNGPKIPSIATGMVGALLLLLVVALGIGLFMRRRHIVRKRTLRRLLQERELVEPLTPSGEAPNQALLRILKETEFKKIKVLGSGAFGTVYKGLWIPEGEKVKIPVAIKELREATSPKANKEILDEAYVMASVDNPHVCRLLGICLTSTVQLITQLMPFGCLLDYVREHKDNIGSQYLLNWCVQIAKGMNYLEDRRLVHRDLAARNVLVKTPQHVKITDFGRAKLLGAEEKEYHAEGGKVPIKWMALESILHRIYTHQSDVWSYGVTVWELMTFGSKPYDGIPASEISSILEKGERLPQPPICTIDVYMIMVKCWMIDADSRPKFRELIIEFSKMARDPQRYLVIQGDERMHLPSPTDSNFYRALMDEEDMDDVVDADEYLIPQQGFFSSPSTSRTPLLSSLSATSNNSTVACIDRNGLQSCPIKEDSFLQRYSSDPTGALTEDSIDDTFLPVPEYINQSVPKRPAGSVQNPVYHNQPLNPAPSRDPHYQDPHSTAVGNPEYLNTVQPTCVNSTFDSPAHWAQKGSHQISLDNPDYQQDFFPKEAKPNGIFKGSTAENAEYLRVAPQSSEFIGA
Experimental: as §1

[3] = system: EGFR mutant L858R/T790M Ba/F3 cells; test: Ba/F3 cell proliferation (Cell Titer Glo), L858R/T790M; format: cell-based, murine; conditions: Mus musculus, BaF3, 72 hours, read-out: LRTM BaF3 cell IC50
Text: (§2) The EGFR mutant L858R and L858R/T790M Ba/F3 cells have been previously described (Zhou, W., et al. Nature 462, 2009, 1070-1074). All cell lines were maintained in RPMI 1640 (Cellgro; Mediatech Inc., Herndon, CA) supplemented with 10% FBS, 100 units/mL penicillin, 100 units/mL streptomycin. The EGFR 1941R mutation was introduced via site directed mutagenesis using the Quick Change Site-Directed Mutagenesis kit (Stratagene; La Jolla, CA) according to the manufacturer's instructions. All constructs were confirmed by DNA sequencing. The constructs were shuttled into the retroviral vector JP1540 using the Cre-recombination system (Agilent Technologies, Santa Clara, CA). Ba/F3 cells were then infected with retrovirus per standard protocols, as described previously (Zhou, et al, Nature 2009). Stable clones were obtained by selection in puromycin (2 μg/ml).
(§3) Growth and inhibition of growth was assessed by the Cell Titer Glo assay (Promega, Madison, WI) and was performed according to the manufacturer's instructions. The Cell Titer Glo assay is a luminescence-based method used to determine the number of viable cells based on quantitation of the ATP present, which is directly proportional to the amount of metabolically active cells present. Ba/F3 cells of different EGFR genotypes were exposed to the compounds disclosed herein for 72 hours and the number of cells used per experiment was determined empirically as has been previously established (Zhou, et al., Nature 2009). All experimental points were set up in triplicates in 384-well plates and all experiments were repeated at least three times. […] The curves were fitted using a non-linear regression model with a sigmoidal dose response.

[4] = system: EGFR mutant L858R Ba/F3 cells; test: Ba/F3 cell proliferation (Cell Titer Glo), L858R; format: cell-based, murine; conditions: Mus musculus, BaF3, 72 hours, read-out: LR BaF3 cell IC50
Text: as §2, §3

Sequence of EGFR L858R/T790M (P00533 25-1210 T790M/L858R): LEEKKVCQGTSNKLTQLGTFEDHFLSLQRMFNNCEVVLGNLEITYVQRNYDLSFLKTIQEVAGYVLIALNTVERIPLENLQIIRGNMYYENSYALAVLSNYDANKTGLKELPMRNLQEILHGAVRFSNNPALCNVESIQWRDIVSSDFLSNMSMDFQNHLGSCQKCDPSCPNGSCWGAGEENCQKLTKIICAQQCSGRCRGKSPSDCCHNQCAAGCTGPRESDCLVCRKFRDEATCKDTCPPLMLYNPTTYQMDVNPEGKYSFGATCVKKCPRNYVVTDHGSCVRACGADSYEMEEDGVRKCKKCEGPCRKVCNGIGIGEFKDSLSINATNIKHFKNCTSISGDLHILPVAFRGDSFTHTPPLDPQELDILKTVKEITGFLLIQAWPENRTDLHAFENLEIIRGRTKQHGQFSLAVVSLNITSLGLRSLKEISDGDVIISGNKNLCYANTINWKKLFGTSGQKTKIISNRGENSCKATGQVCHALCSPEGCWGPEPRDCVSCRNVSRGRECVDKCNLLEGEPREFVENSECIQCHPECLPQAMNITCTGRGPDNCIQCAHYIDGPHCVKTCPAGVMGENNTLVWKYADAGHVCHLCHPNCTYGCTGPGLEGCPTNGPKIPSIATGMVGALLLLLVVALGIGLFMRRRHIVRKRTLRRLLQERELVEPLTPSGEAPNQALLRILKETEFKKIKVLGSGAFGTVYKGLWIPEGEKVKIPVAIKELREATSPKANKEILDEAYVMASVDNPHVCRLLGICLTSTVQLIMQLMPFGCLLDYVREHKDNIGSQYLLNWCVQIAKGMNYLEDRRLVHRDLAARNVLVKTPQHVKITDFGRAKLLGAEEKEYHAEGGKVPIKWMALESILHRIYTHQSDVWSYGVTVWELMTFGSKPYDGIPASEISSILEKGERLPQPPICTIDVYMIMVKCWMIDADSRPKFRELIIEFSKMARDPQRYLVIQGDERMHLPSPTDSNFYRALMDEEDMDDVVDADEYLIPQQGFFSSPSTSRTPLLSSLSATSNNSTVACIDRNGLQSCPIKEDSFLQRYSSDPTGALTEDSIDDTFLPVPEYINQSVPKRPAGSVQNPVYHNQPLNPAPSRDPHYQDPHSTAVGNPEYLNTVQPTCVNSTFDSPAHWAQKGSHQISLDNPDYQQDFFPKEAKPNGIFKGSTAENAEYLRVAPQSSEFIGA

Row | Compound | IC50 [1] [nM] | IC50 [2] [nM] | IC50 [3] [nM] | IC50 [4] [nM]
1 | CN1CCC(c2ccc(-c3ccc4c(c3)OCN(C(c3nc5ccccc5[nH]3)c3cc(F)ccc3O)C4=O)cc2)CC1 (stereo not drawn) [Compound 006, 3-((1H-Benzo[d]imidazol-2-yl) (5-fluoro-2-hydroxyphenyl)methyl)-7-(4-(1-methylpiperidin-4-yl)phenyl)-2,3-dihydro-4H-benzo[e][1,3]oxazin-4-one] | 0.9 | 3.6 | 880 | 1540
2 | CN1CCC(c2ccc(-c3ccc4c(c3)C(=O)N(C(c3nc5ccccc5[nH]3)c3cc(F)ccc3O)CO4)cc2)CC1 (stereo not drawn) [Compound 007, 3-((1H-Benzo[d]imidazol-2-yl) (5-fluoro-2-hydroxyphenyl)methyl)-6-(4-(1-methylpiperidin-4-yl)phenyl)-2,3-dihydro-4H-benzo[e][1,3]oxazin-4-one 2,2,2-trifluoroacetate] | 0.7 | 1.9 | 220 | 470
3 | CN1CCC(c2ccc(-c3ccc4c(c3)OCN(C(C(=O)Nc3nccs3)c3ccccc3)C4=O)cc2)CC1 (stereo not drawn) [Compound 004, 2-(7-(4-(1-Methylpiperidin-4-yl)phenyl)-4-oxo-2H-benzo[e][1,3]oxazin-3(4H)-yl)-2-phenyl-N-(thiazol-2-yl)acetamide] | 21 | > 100 |  | 
4 | CN1CCC(c2ccc(-c3ccc4c(c3F)C(=O)N(C(C(=O)Nc3nccs3)c3ccccc3)CO4)cc2)CC1 (stereo not drawn) [Compound 005, 2-(5-Fluoro-6-(4-(1-methylpiperidin-4-yl)phenyl)-4-oxo-2H-benzo[e][1,3]oxazin-3(4H)-yl)-2-phenyl-N-(thiazol-2-yl)acetamide] | 1 | 3.7 | 460 | 1040
5 | CN1CCC(c2ccc(-c3ccc4c(c3)C(=O)N(C(C(=O)Nc3nccs3)c3cccc(F)c3)CO4)cc2)CC1 (stereo not drawn) [Compound 001, 2-(3-Fluorophenyl)-2-(6-(4-(1-methylpiperidin-4-yl)phenyl)-4-oxo-2H-benzo[e][1,3]oxazin-3 (4H)-yl)-N-(thiazol-2-yl)acetamide] | 0.4 | 2.8 | 510 | 1480
6 | CN1CCN(c2ccc(-c3ccc4c(c3)C(=O)N(C(C(=O)Nc3nccs3)c3cccc(F)c3)CO4)cc2)CC1 (stereo not drawn) [Compound 002, 2-(3-Fluorophenyl)-2-(6-(4-(4-methylpiperazin-1-yl)phenyl)-4-oxo-2H-benzo[e][1,3]oxazin-3 (4H)-yl)-N-(thiazol-2-yl)acetamide] | 4 | 23 |  | 
7 | CN1CCC(c2ccc(-c3ccc4c(c3)C(=O)N(C(C(=O)Nc3nccs3)c3ccccc3)CO4)cc2)CC1 (stereo not drawn) [Compound 003, 2-(6-(4-(1-Methylpiperidin-4-yl)phenyl)-4-oxo-2H-benzo[e][1,3]oxazin-3(4H)-yl)-2-phenyl-N-(thiazol-2-yl)acetamide] | 0.8 | 23 | 460 | 1250

Source: patent publication US20250388573A1, “FUSED BICYCLIC EGFR INHIBITORS AND METHODS OF USE THEREOF” (Dana-Farber Cancer Institute, Inc., priority 2022, published 2025)
